Data taken from ChEMBL document CHEMBL2440076, “New triarylpyrazoles as broad-spectrum anticancer agents: design, synthesis, and biological evaluation” (Eur J Med Chem, 2013).

What was measured:
MDA-MB-468 = test: Growth inhibition of human MDA-MB-468 cells assessed as cell growth at 10 uM after 48 hrs by sulforhodamine B assay; format: functional; conditions: MDA-MB-468, 48 h, read-out: Activity
BT-549 = test: Growth inhibition of human BT549 cells assessed as cell growth at 10 uM after 48 hrs by sulforhodamine B assay; format: functional; conditions: BT-549, 48 h, read-out: Activity
[1] = Growth inhibition of human Hs 578T cells assessed as cell growth at 10 uM after 48 hrs by sulforhodamine B assay; format: functional; conditions: read-out: Activity
MDA-MB-231 = test: Growth inhibition of human MDA-MB-231 cells assessed as cell growth at 10 uM after 48 hrs by sulforhodamine B assay; format: functional; conditions: MDA-MB-231, 48 h, read-out: Activity
DU-145 = test: Growth inhibition of human DU145 cells assessed as cell growth at 10 uM after 48 hrs by sulforhodamine B assay; format: functional; conditions: DU-145, 48 h, read-out: Activity
TK-10 = test: Growth inhibition of human TK10 cells assessed as cell growth at 10 uM after 48 hrs by sulforhodamine B assay; format: functional; conditions: TK-10, 48 h, read-out: Activity
NCI-H522 = test: Growth inhibition of human NCI-H522 cells after 48 hrs by sulforhodamine B assay; format: functional; conditions: NCI-H522, 48 h
HOP-62 = test: Growth inhibition of human HOP62 cells after 48 hrs by sulforhodamine B assay; format: functional; conditions: HOP-62, 48 h
SR = test: Growth inhibition of human SR cells after 48 hrs by sulforhodamine B assay; format: functional
MOLT-4 [2] = test: Growth inhibition of human MOLT4 cells after 48 hrs by sulforhodamine B assay; format: functional; conditions: MOLT-4, 48 h
HL-60(TB) = test: Growth inhibition of human HL-60(TB) cells after 48 hrs by sulforhodamine B assay; format: functional; conditions: HL-60, 48 h
UACC-257 = test: Growth inhibition of human UACC257 cells assessed as cell growth at 10 uM after 48 hrs by sulforhodamine B assay; format: functional; conditions: UACC-257, 48 h, read-out: Activity
MDA-MB-435 = test: Growth inhibition of human MDA-MB-435 cells assessed as cell growth at 10 uM after 48 hrs by sulforhodamine B assay; format: functional; conditions: MDA-MB-435, 48 h, read-out: Activity
HT-29 = test: Growth inhibition of human HT-29 cells assessed as cell growth at 10 uM after 48 hrs by sulforhodamine B assay; format: functional; conditions: HT-29, 48 h, read-out: Activity
KM12 = test: Growth inhibition of human KM12 cells assessed as cell growth at 10 uM after 48 hrs by sulforhodamine B assay; format: functional; conditions: KM12, 48 h, read-out: Activity
HCT-116 = test: Growth inhibition of human HCT116 cells assessed as cell growth at 10 uM after 48 hrs by sulforhodamine B assay; format: functional; conditions: HCT-116, 48 h, read-out: Activity
COLO 205 = test: Growth inhibition of human COLO205 cells assessed as cell growth at 10 uM after 48 hrs by sulforhodamine B assay; format: functional; conditions: COLO 205, 48 h, read-out: Activity
NCI-H23 = test: Growth inhibition of human NCI-H23 cells assessed as cell growth at 10 uM after 48 hrs by sulforhodamine B assay; format: functional; conditions: NCI-H23, 48 h, read-out: Activity
NCI-H226 = test: Growth inhibition of human NCI-H226 cells assessed as cell growth at 10 uM after 48 hrs by sulforhodamine B assay; format: functional; conditions: NCI-H226, 48 h, read-out: Activity
SN12C = test: Growth inhibition of human SN12C cells after 48 hrs by sulforhodamine B assay; format: functional
ACHN = test: Growth inhibition of human ACHN cells after 48 hrs by sulforhodamine B assay; format: functional
786-0 = test: Growth inhibition of human 786-0 cells after 48 hrs by sulforhodamine B assay; format: functional; conditions: 786-0, 48 h
SK-OV-3 = test: Growth inhibition of human SKOV3 cells after 48 hrs by sulforhodamine B assay; format: functional; conditions: SK-OV-3, 48 h
OVCAR-8 = test: Growth inhibition of human OVCAR8 cells after 48 hrs by sulforhodamine B assay; format: functional; conditions: OVCAR-8, 48 h
IGROV-1 = test: Growth inhibition of human IGROV1 cells after 48 hrs by sulforhodamine B assay; format: functional; conditions: IGROV-1, 48 h
UACC-62 = test: Growth inhibition of human UACC62 cells after 48 hrs by sulforhodamine B assay; format: functional; conditions: UACC-62, 48 h
SK-MEL-28 = test: Growth inhibition of human SK-MEL-28 cells after 48 hrs by sulforhodamine B assay; format: functional; conditions: SK-MEL-28, 48 h
SK-MEL-2 = test: Growth inhibition of human SK-MEL-2 cells after 48 hrs by sulforhodamine B assay; format: functional; conditions: SK-MEL-2, 48 h
M14 = test: Growth inhibition of human M14 cells after 48 hrs by sulforhodamine B assay; format: functional; conditions: M14, 48 h
U-251 = test: Growth inhibition of human U251 cells after 48 hrs by sulforhodamine B assay; format: functional; conditions: U-251, 48 h
SF-268 = test: Growth inhibition of human SF268 cells after 48 hrs by sulforhodamine B assay; format: functional; conditions: SF-268, 48 h
SF-295 = test: Growth inhibition of human SF295 cells after 48 hrs by sulforhodamine B assay; format: functional, cell-based; conditions: SF-295, 48 h
MOLT-4 [3] = test: Growth inhibition of human MOLT4 cells assessed as cell growth at 10 uM after 48 hrs by sulforhodamine B assay; format: functional; conditions: MOLT-4, 48 h, read-out: Activity
K562 = test: Growth inhibition of human K562 cells assessed as cell growth at 10 uM after 48 hrs by sulforhodamine B assay; format: functional; conditions: K562, 48 h, read-out: Activity
[4] = read-out: LC50 (the source's name)

What does the source list for `O=C(Nc1cccc(-n2cc(-c3ccncc3)c(-c3ccc(Cl)c(O)c3)n2)c1)Nc1ccc(Cl)c(C(F)(F)F)c1`?
growth at 10 µM (MDA-MB-468): -49.5%; growth at 10 µM (BT-549): 1.33%; growth at 10 µM [1]: -7.39%; growth at 10 µM (MDA-MB-231): -36.4%; growth at 10 µM (DU-145): -17%; growth at 10 µM (TK-10): -1.62%; GI50 (NCI-H522): 720 nM; LC50 (concentration killing 50% of cells) (NCI-H522): 24.5 µM; TGI (NCI-H522): 2500 nM; GI50 (HOP-62): 1220 nM; TGI (HOP-62): 7.83 µM; CC50 (HOP-62; [4]): > 32.5 µM; GI50 (SR): 715 nM; TGI (SR): 2520 nM; CC50 (SR; [4]): > 32.5 µM; GI50 (MOLT-4 [2]): 777 nM; TGI (MOLT-4 [2]): 2930 nM; CC50 (MOLT-4 [2]; [4]): > 32.5 µM; GI50 (HL-60(TB)): 1500 nM; TGI (HL-60(TB)): > 32.5 µM; CC50 (HL-60(TB); [4]): > 32.5 µM; growth at 10 µM (UACC-257): -54%; growth at 10 µM (MDA-MB-435): -31.3%; growth at 10 µM (HT-29): -6.5%; growth at 10 µM (KM12): -27.3%; growth at 10 µM (HCT-116): -51%; growth at 10 µM (COLO 205): -60.2%; growth at 10 µM (NCI-H23): -25.8%; growth at 10 µM (NCI-H226): 3.43%; GI50 (SN12C): 1120 nM; TGI (SN12C): 17.1 µM; CC50 (SN12C; [4]): > 32.5 µM; GI50 (ACHN): 913 nM; TGI (ACHN): > 32.5 µM; CC50 (ACHN; [4]): > 32.5 µM; GI50 (786-0): 1280 nM; TGI (786-0): > 32.5 µM; CC50 (786-0; [4]): > 32.5 µM; GI50 (SK-OV-3): 1340 nM; TGI (SK-OV-3): 14.9 µM; CC50 (SK-OV-3; [4]): > 32.5 µM; GI50 (OVCAR-8): 759 nM; TGI (OVCAR-8): 2280 nM; CC50 (OVCAR-8; [4]): > 32.5 µM; GI50 (IGROV-1): 715 nM; LC50 (concentration killing 50% of cells) (IGROV-1): > 32.5 µM; TGI (IGROV-1): 2220 nM; GI50 (UACC-62): 627 nM; LC50 (50% lethal concentration) (UACC-62): 3.16 µM; TGI (UACC-62): 1450 nM; GI50 (SK-MEL-28): 978 nM; LC50 (SK-MEL-28): 12.4 µM; TGI (SK-MEL-28): 3.33 µM; GI50 (SK-MEL-2): 798 nM; LC50 (50% lethal concentration) (SK-MEL-2): 5.84 µM; TGI (SK-MEL-2): 1730 nM; GI50 (M14): 886 nM; LC50 (concentration killing 50% of cells) (M14): > 32.5 µM; TGI (M14): 2770 nM; GI50 (U-251): 548 nM; LC50 (concentration killing 50% of cells) (U-251): 2740 nM; TGI (U-251): 1230 nM; GI50 (SF-268): 1060 nM; TGI (SF-268): 6.98 µM; CC50 (SF-268; [4]): > 32.5 µM; GI50 (SF-295): 740 nM; IC50 (SF-295): 740 nM; TGI (SF-295): 2060 nM; CC50 (SF-295; [4]): > 32.5 µM; growth at 10 µM (MOLT-4 [3]): -22.1%; growth at 10 µM (K562): -20.8%
